In patent publication US9980943B2, “Methods of treating muscular dystrophy” (BOARD OF REGENTS OF THE NEVADA SYSTEM OF HIGHER EDUCATION, …, priority 2013, dated 2018):
Where two headings read alike, the source gives them in different places.

Columns and labels:
Type in all cases: cell-based, mouse
[1] = system: α7 integrin (LacZ reporter in α7βgal+/− myoblasts); assay: Myoblast α7+/LacZ integrin FDG assay (Burkin assay in myoblasts, 96-well); settings: α7+/LacZ myoblasts, 96-well; for fold induction at 0.5 µM / fold induction at 1 µM / fold induction at 5 µM / fold induction at 10 µM / fold induction at 20 µM / fold induction at 40 µM: Mus musculus, Myoblast, 48 h
[2] = system: α7 integrin (LacZ reporter in α7+/LacZ myotubes); assay: Myotube α7 integrin FDG assay (Burkin assay in myotubes, 96-well); settings: myotubes; for fold induction at 0.5 µM / fold induction at 1 µM / fold induction at 5 µM / fold induction at 10 µM / fold induction at 20 µM / fold induction at 40 µM: Mus musculus, Myotube
[3] = system: β-galactosidase in CMV-LacZ C2C12 myotubes; assay: CMV-LacZ secondary screen in C2C12 myotubes (β-Gal stabilizing assay); settings: for fold induction at 5 µM / fold induction at 10 µM / fold induction at 20 µM / fold induction at 40 µM: Mus musculus; for fold induction at 5 µM: C2C12, read-out: CMV-LACZ in Myotubes, signal relative to DMSO, 5 uM; for fold induction at 5 µM / fold induction at 10 µM / fold induction at 20 µM / fold induction at 40 µM / CMV-LACZ in Myotubes, signal relative to DMSO: C2C12 CMV-LacZ myotubes, fold relative to DMSO; for fold induction at 10 µM: C2C12, read-out: CMV-LACZ in Myotubes, signal relative to DMSO, 10 uM; for fold induction at 20 µM: C2C12, read-out: CMV-LACZ in Myotubes, signal relative to DMSO, 20 uM; for fold induction at 40 µM: C2C12, read-out: CMV-LACZ in Myotubes, signal relative to DMSO, 40 uM; for CMV-LACZ in Myotubes (β-galactosidase activity relative to DMSO): CMV-LacZ C2C12 myotubes, 96-well format
How it was run: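 CMV-LacZ C2C12 line (clonal, FDG-screened); myoblasts/myotubes dosed 0.5–40 μM (0.5, 1, 5, 10, 20, 40 μM); n=2 per point; β-gal stabilization read-out.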

Structure (SMILES)	Burkin Assay in Myoblasts, value relative to DMSO ([1]; 0.5 uM)	Burkin Assay in Myoblasts, value relative to DMSO ([1]; 1 uM)	Burkin Assay in Myoblasts, value relative to DMSO ([1]; 5 uM)	Burkin Assay in Myoblasts, value relative to DMSO ([1]; 10 uM)	Burkin Assay in Myoblasts, value relative to DMSO ([1]; 20 uM)	Burkin Assay in Myoblasts, value relative to DMSO ([1]; 40 uM)	Burkin Assay in Myotubes (signal relative to DMSO) ([2]; 0.5 uM)	Burkin Assay in Myotubes (signal relative to DMSO) ([2]; 1 uM)	Burkin Assay in Myotubes (signal relative to DMSO) ([2]; 5 uM)	Burkin Assay in Myotubes (signal relative to DMSO) ([2]; 10 uM)	Burkin Assay in Myotubes (signal relative to DMSO) ([2]; 20 uM)	Burkin Assay in Myotubes (signal relative to DMSO) ([2]; 40 uM)	CMV-LACZ in Myotubes, signal relative to DMSO ([3]; 5 uM)	CMV-LACZ in Myotubes, signal relative to DMSO ([3]; 10 uM)	CMV-LACZ in Myotubes, signal relative to DMSO ([3]; 20 uM)	CMV-LACZ in Myotubes, signal relative to DMSO ([3]; 40 uM)	other results
COc1cc2c(cc1NC(=O)Cc1ccc(C)cc1)oc1ccccc12 [MLS000579238-01]	–	–	–	–	–	–	–	–	–	–	–	–	–	–	–	–	fold induction at 0.5 µM ([1]; 0.5 uM, read-out: Burkin Assay in Myoblasts, signal relative to DMSO): 0.961; fold induction at 1 µM ([1]; 1 uM, read-out: Burkin Assay in Myoblasts, signal relative to DMSO): 1.11; fold induction at 5 µM ([1]; 5 uM, read-out: Burkin Assay in Myoblasts, signal relative to DMSO): 1.17; fold induction at 10 µM ([1]; 10 uM, read-out: Burkin Assay in Myoblasts, signal relative to DMSO): 1.3; fold induction at 20 µM ([1]; 20 uM, read-out: Burkin Assay in Myoblasts, signal relative to DMSO): 1.11; fold induction at 40 µM ([1]; 40 uM, read-out: Burkin Assay in Myoblasts, signal relative to DMSO): 0.912; fold induction at 0.5 µM ([2]; 0.5 uM, read-out: Burkin Assay in Myotubes, α7 integrin LacZ reporter signal relative to DMSO): 0.951; fold induction at 1 µM ([2]; 1 uM, read-out: Burkin Assay in Myotubes, α7 integrin LacZ reporter signal relative to DMSO): 1.11; fold induction at 5 µM ([2]; 5 uM, read-out: Burkin Assay in Myotubes, α7 integrin LacZ reporter signal relative to DMSO): 1.01; fold induction at 10 µM ([2]; 10 uM, read-out: Burkin Assay in Myotubes, α7 integrin LacZ reporter signal relative to DMSO): 1.1; fold induction at 20 µM ([2]; 20 uM, read-out: Burkin Assay in Myotubes, α7 integrin LacZ reporter signal relative to DMSO): 0.856; fold induction at 40 µM ([2]; 40 uM, read-out: Burkin Assay in Myotubes, α7 integrin LacZ reporter signal relative to DMSO): 0.771; fold induction at 5 µM [3]: 0.815; fold induction at 10 µM [3]: 0.872; fold induction at 20 µM [3]: 0.83; fold induction at 40 µM [3]: 0.944
CCc1ccc(Sc2cc(C(=O)NCCN3CCOCC3)c3ccccc3n2)cc1 [MLS000584511-01]	0.5425	0.8885	1.033	1.087	1.05	1.072	1.0682	1.051	1.2189	1.163	1.004	1.041	0.8355	0.8735	0.871	0.7478	–
O=C(O)CCn1cc(/C=C2/NC(=S)N(c3ccccc3)C2=O)c(-c2ccccc2)n1 [MLS000585616-01]	–	–	–	–	–	–	–	–	–	–	–	–	–	–	–	–	fold induction at 0.5 µM ([1]; 0.5 uM, read-out: Burkin Assay in Myoblasts, value relative to DMSO): 0.681; fold induction at 1 µM ([1]; 1 uM, read-out: Burkin Assay in Myoblasts, value relative to DMSO): 0.943; fold induction at 5 µM ([1]; 5 uM, read-out: Burkin Assay in Myoblasts, value relative to DMSO): 1.01; fold induction at 10 µM ([1]; 10 uM, read-out: Burkin Assay in Myoblasts, value relative to DMSO): 0.977; fold induction at 20 µM ([1]; 20 uM, read-out: Burkin Assay in Myoblasts, value relative to DMSO): 0.935; fold induction at 40 µM ([1]; 40 uM, read-out: Burkin Assay in Myoblasts, value relative to DMSO): 0.932; fold induction at 0.5 µM ([2]; 0.5 uM, read-out: Burkin Assay in Myotubes (signal relative to DMSO)): 0.999; fold induction at 1 µM ([2]; 1 uM, read-out: Burkin Assay in Myotubes (signal relative to DMSO)): 0.958; fold induction at 5 µM ([2]; 5 uM, read-out: Burkin Assay in Myotubes (signal relative to DMSO)): 1.58; fold induction at 10 µM ([2]; 10 uM, read-out: Burkin Assay in Myotubes (signal relative to DMSO)): 1.15; fold induction at 20 µM ([2]; 20 uM, read-out: Burkin Assay in Myotubes (signal relative to DMSO)): 1.03; fold induction at 40 µM ([2]; 40 uM, read-out: Burkin Assay in Myotubes (signal relative to DMSO)): 0.962; fold induction at 5 µM [3]: 0.903; fold induction at 10 µM [3]: 0.791; fold induction at 20 µM [3]: 0.91; fold induction at 40 µM [3]: 0.879
Cc1ccc(C2Nc3cccc4cccc(c34)N2)s1 [MLS000591198-01]	1.006	0.9251	1.037	0.9593	0.7765	0.473	1.017	0.881	1	0.8548	0.9852	0.7014	–	–	–	–	CMV-LACZ in Myotubes (β-galactosidase activity relative to DMSO) ([3]; 5 uM): 0.9681; CMV-LACZ in Myotubes (β-galactosidase activity relative to DMSO) ([3]; 10 uM): 0.9319; CMV-LACZ in Myotubes (β-galactosidase activity relative to DMSO) ([3]; 20 uM): 0.8338; CMV-LACZ in Myotubes (β-galactosidase activity relative to DMSO) ([3]; 40 uM): 0.4531
N/C(=N\OC(=O)COc1cc(Cl)c(Cl)cc1Cl)c1ccncc1 [MLS000625140-01]	0.8839	0.8709	0.8748	0.7833	0.7589	0.6829	0.8484	0.8454	1.114	0.9131	0.6793	0.6514	–	–	–	–	CMV-LACZ in Myotubes (β-galactosidase activity relative to DMSO) ([3]; 5 uM): 0.9172; CMV-LACZ in Myotubes (β-galactosidase activity relative to DMSO) ([3]; 10 uM): 1.036; CMV-LACZ in Myotubes (β-galactosidase activity relative to DMSO) ([3]; 20 uM): 1.107; CMV-LACZ in Myotubes (β-galactosidase activity relative to DMSO) ([3]; 40 uM): 1.016
Cn1c(=O)c2c(nc(Sc3ncnn3CC(=O)NC3CCCCC3)n2C)n(C)c1=O [MLS000663651-01]	–	–	–	–	–	–	–	–	–	–	–	–	0.9636	0.9788	0.949	0.861	Burkin Assay in Myoblasts, signal relative to DMSO ([1]; 0.5 uM): 1.143; Burkin Assay in Myoblasts, signal relative to DMSO ([1]; 1 uM): 1.059; Burkin Assay in Myoblasts, signal relative to DMSO ([1]; 5 uM): 0.9834; Burkin Assay in Myoblasts, signal relative to DMSO ([1]; 10 uM): 0.9551; Burkin Assay in Myoblasts, signal relative to DMSO ([1]; 20 uM): 0.9504; Burkin Assay in Myoblasts, signal relative to DMSO ([1]; 40 uM): 1.048; Burkin Assay in Myotubes, α7 integrin LacZ reporter signal relative to DMSO ([2]; 0.5 uM): 0.946; Burkin Assay in Myotubes, α7 integrin LacZ reporter signal relative to DMSO ([2]; 1 uM): 0.9099; Burkin Assay in Myotubes, α7 integrin LacZ reporter signal relative to DMSO ([2]; 5 uM): 1.106; Burkin Assay in Myotubes, α7 integrin LacZ reporter signal relative to DMSO ([2]; 10 uM): 1.007; Burkin Assay in Myotubes, α7 integrin LacZ reporter signal relative to DMSO ([2]; 20 uM): 1.017; Burkin Assay in Myotubes, α7 integrin LacZ reporter signal relative to DMSO ([2]; 40 uM): 0.9648
CCCCNS(=O)(=O)c1ccc2nc(-c3cccnc3)cc(C(=O)NCCOC)c2c1 [MLS000673766-01]	1.02	1.061	0.928	1.0253	0.91	0.9919	0.968	0.9862	0.896	0.9276	0.8272	0.8717	0.9847	0.9632	1.11	1.04	–
